The values that follow come from ChEMBL document CHEMBL1155780, “Lack of aquaporin-4 water transport inhibition by antiepileptics and arylsulfonamides” (Bioorg Med Chem, 2008).

Aquaporin-4 (Homo sapiens), sequence (P55087 whole entry): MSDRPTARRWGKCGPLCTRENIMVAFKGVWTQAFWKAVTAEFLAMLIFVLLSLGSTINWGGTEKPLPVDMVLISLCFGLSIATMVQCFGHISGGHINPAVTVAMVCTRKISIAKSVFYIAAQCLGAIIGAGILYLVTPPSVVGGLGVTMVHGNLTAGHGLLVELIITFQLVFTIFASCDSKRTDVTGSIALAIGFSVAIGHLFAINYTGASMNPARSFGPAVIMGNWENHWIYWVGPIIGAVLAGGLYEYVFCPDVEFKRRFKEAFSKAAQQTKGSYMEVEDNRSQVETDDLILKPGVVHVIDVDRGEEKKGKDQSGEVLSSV

The assay concerns the target Aquaporin-4 (Homo sapiens) (UniProt P55087). The conditions noted are these: FRT.
Description: Inhibition of AQP4 expressed in rat FRT cells assessed as osmotic water permeability at 100 uM after 15 mins by stopped-flow light scattering method
For `O=C1NC(=O)C(c2ccccc2)(c2ccccc2)N1`, the permeability amounted to 12900 ×10⁻⁶ cm/s.

For `CNS(=O)(=O)Cc1ccc2[nH]cc(CCN(C)C)c2c1`, the permeability was found to be 12900 ×10⁻⁶ cm/s.

`CCOc1ccc2nc(S(N)(=O)=O)sc2c1` had a permeability of 12900 ×10⁻⁶ cm/s.

Compound `CC(=O)Nc1nnc(S(N)(=O)=O)s1` showed a permeability of 12900 ×10⁻⁶ cm/s.

The compound `CC(=O)Nc1ccc(S(N)(=O)=O)cc1` returned a permeability of 12900 ×10⁻⁶ cm/s.

The compound `CC1(C)O[C@@H]2[C@@H](CO[C@@]3(COS(N)(=O)=O)OC(C)(C)O[C@@H]23)O1` gave a permeability of 12900 ×10⁻⁶ cm/s.

As to `NS(=O)(=O)Cc1noc2ccccc12`, the permeability turned out to be 12900 ×10⁻⁶ cm/s.
